Here are results for 4 compounds from patent publication US4351954A (priority 1979, dated 1982).

Assay [1] has as its system diamondback moths (Plutella maculipennis Curtis). Nature of the assay: Insecticidal activity, treated cabbage leaves fed to moths. Type of assay: in vivo. To be noted: 240 h, cabbage leaves immersed in 500-ppm aqueous solution, after 10 days, read-out: insects dead. The text has this:
Cabbage leaves were immersed in a 500-ppm aqueous CF2 BrCF2 CH2 CH(NH2)CO2 H solution, removed from the solution and dried. They were placed in a Petri dish, in which a group of diamondback moths (Plutella maculipennis Curtis) were fed on the cabbage leaves. After 10 days, 70% of the insects were dead. When the same number of diamondback moths were fed on cabbage leaves which had not been given the treatment, only 10% of the insects were dead after 10 days.

Assay [2] relates to blast (Pyricularia oryzae Cavara). Type of assay: cell-based. To be noted: paper discs immersed in 500-ppm aqueous solution; after two days; qualitative.
Assay [3] has as its system bacterial leaf blight (Xanthomonas oryzae Dowson). Type of assay: cell-based. As to conditions: paper discs immersed in 500-ppm aqueous solution; after two days; qualitative.
The subject of assay [4] is purple loosestrife (Lythrum anceps). Nature of the assay: Herbicidal activity, miniature paddy field. Type of assay: in vivo. As to conditions: 1% aqueous solution, after 15 days. The text has this: (§1) Paddy-field soil kneaded in a concrete mixer was placed in 500-ml plastic beakers. Seeds of barnyardgrass (Echinochloa crusgalli Beauv.) were scattered on the soil and incorporated in the soil to a depth of about 2 cm from the surface. Afterward, the seeds of pickerelweed (Monochloria vaginalis var. plantaginea) and purple loosestrife (Lythrum anceps) were scattered on the surface of soil. Then, slender spikerush (Eleocharis acicularis) and rice were transplanted to the soil. The soil in the beakers was inundated to a depth of about 3 cm. After two days, 1% aqueous solution of CF2 ClCFClCH2 CH(NH2)CO2 H and CF2 BrCF2 CH2 CH(NH2)CO2 H were applied to the soil in the beakers at dosage rates of 1000 g, 500 g, and 250 g per 10 acres with the aid of a pipet. After 15 days, the miniature paddy fields were examined.

The subject of assay [5] is pickerelweed (Monochloria vaginalis var. plantaginea). Nature of the assay: Herbicidal activity, miniature paddy field. Type of assay: in vivo. As to conditions: 1% aqueous solution, after 15 days.
Source text: as §1

For another assay, the system named is acid phosphatase. The experiment in a line: Enzyme inhibiting activity. Type of assay: biochemical. To be noted: pH 5, 37° C. for 20 minutes. The method, then: A 2×10^-4 M aqueous solution of fluorine-containing amino acid was prepared by adding a fluorine-containing amino acid, viz. CF2 ClCHFCH2 CH(NH2)CO2 H, dissolved in a small amount of methanol to a mixture consisting of 0.1 cc of a 0.025% aqueous solution of acid phosphatase, 0.1 mol of a substrate, 0.05 cc of DPNP, 0.25 cc of water and a 0.1 N sodium acetate (pH 5) as a buffer. The resultant mixture was incubated at 37° C. for 20 minutes. At the end of the 20 minutes, the reaction proceeding in the mixture was stopped by adding 3 cc of an aqueous NaOH solution to the mixture. The mixture was assayed for absorption at a wavelength of 422 mμ.
When the procedure was repeated by using a 1×10^-3 M aqueous solution of CF2 ClCFClCH(CH3)CH(NH2)CO2 H, the enzyme inhibition ratio was 37%.

For assay [6], the system named is melanose (Diaporthe citri Wolf). Type of assay: cell-based.
Assay [7] has as its system black spot (Alternaria kikuchiana Tanka). It counts as cell-based.

Take `NC(CC(F)(F)C(F)(F)Br)C(=O)O` (stereo not shown) [CF2 BrCF2 CH2 CH(NH2)CO2 H, 2-amino-4,4,5,5-tetrafluoro-5-bromopentanoic acid]: in assay [1], the mortality at 500 µg/mL stood at 70%. In assay [2], the “growth of the germs of blast” value is given as “impeded the growth”. Further, in assay [3], the “growth of the germs of bacterial leaf blight” value was “impeded the growth”. Also, the “destruction of purple loosestrife” value is “half destroyed” in assay [4] (250 g per 10 acres), “half destroyed” in assay [4] (500 g per 10 acres) and “completely destroyed” in assay [4] (1000 g per 10 acres). Moreover, the destruction of pickerelweed entry in assay [5] (250 g per 10 acres) is “half destroyed”; in assay [5] (500 g per 10 acres), “half destroyed”; in assay [5] (1000 g per 10 acres), “completely destroyed”.

Consider `NC(CC(F)C(F)(F)Cl)C(=O)O` (stereo not shown) [CF2 ClCHFCH2 CH(NH2)CO2 H, 2-amino-4,5,5-trifluoro-5-chloropentanoic acid], for which, in the assay on acid phosphatase (2×10^-4 M), the enzyme inhibition came to 58%.

On to `CC(C(N)C(=O)O)C(F)(Cl)C(F)(F)Cl` (stereo not shown) [CF2 ClCFClCH(CH3)CH(NH2)CO2 H, 2-amino-3-methyl-4,5-dichloro-4,5,5-trifluoropentanoic acid], for which the enzyme inhibition ratio with acid phosphatase (1×10^-3 M, 1000 µM) was 37%.

Regarding `NC(CC(F)(Cl)C(F)(F)Cl)C(=O)O` (stereo not shown) [CF2 ClCFClCH2 CH(NH2)CO2 H], in assay [6], the “growth of the germs of melanose” value is recorded as “impeded the growth”. In addition, the “growth of the germs of black spot” value in assay [7] is recorded as “impeded the growth”. In addition, the “destruction of purple loosestrife” value in assay [4] (250 g per 10 acres), in assay [4] (500 g per 10 acres) and in assay [4] (1000 g per 10 acres) was “completely destroyed” each time. Further, the destruction of pickerelweed entry in assay [5] (250 g per 10 acres), in assay [5] (500 g per 10 acres) and in assay [5] (1000 g per 10 acres) was “completely destroyed” each time.
